Results published in US8933195B2, “Histone deacetylase inhibitors and synthetic method thereof and use thereof in manufacture of medicaments” (Nanjing Yoko Biomedical R & D Ltd., priority 2011, dated 2015).
pIC50: −log10 of the molar value.

Assays:
Incap = assay: MTT cancer cell growth inhibition; type: cell-based; details: 72 h
[1] = tested on: U937 (human leukemia cells); assay: MTT cancer cell growth inhibition; type: cell-based; details: U-937, 72 h
Description: (§1) 1. Experimental principles: the inhibition of cancer cell growth with compounds is detected by an MTT method. The principle of the MTT method is as follows: yellow thiazolyl blue may penetrate through cell membranes and enter into cells, succinate dehydrogenase in living cell mitochondria may reduce exogenous MTT into water-insoluble ianthinus acicular Formazan crystals which deposit in the cells, the crystals can be dissolved with dimethyl sulfoxide (DMSO), the optical density of the crystals is detected with an enzyme-linked immunometric meter at the wavelength of 490 nm/570 nm, and the number of cells can be indirectly reflected.
(§2) 2. Experimental materials: the used cancer cell lines are Hela (human cervical cancer cells), MCF-7 (human breast cancer cells), BGC-823 (human gastric cancer cells), A549 (human lung cancer cells), HT1080 (human fibrosarcoma cells), A431 (human epidermal squamous cell carcinoma cells), HUVEC (human umbilical vein endothelial cells), DU145 (human prostate cancer cells), K562 (human leukemia cells), U937 (human leukemia cells), Pac-1 (human pancreatic cancer cells), and MOLT-4 (human acute lymphoblastic leukemia cells), which are cultured with a DMEM+10% FBS culture medium or a 1640+10% FBS culture medium, respectively.
(§3) Experimental groups: 190 μl cell suspension+10 μl pharmaceuticals in different concentrations (the final concentration is 10^−5-10^−10M)
(§4) Negative control group: 190 μl cell suspension+10 μl 2% DMSO (the final concentration of DMSO is 0.1%)
(§5) a) Cells are inoculated on a 96-pore plate, with 1500 cells and 190 μl for each hole, and cultured overnight in a 5% CO2 incubator at 37.
(§6) b) 10 μl of different pharmaceuticals is added into each hole the next day, with the final concentration of the pharmaceuticals of 10^−5-10^−10M and three parallel holes, and incubated for 72 h in a 5% CO2 incubator at 37.
(§7) c) 20 μl of 5 mg/mL MTT is added into each hole, and incubated for 4 h in a 5% CO2 incubator at 37.
(§8) d) Supernatant is removed. 100 μl of DMSO is added into each hole and vibrated.
(§9) e) The reading is 570 nm. The cell survival rate is calculated.

[2] = tested on: HT1080 (human fibrosarcoma cells); assay: MTT cancer cell growth inhibition; type: cell-based; details: HT-1080, 72 h
Description: as §1, §2, §3, §4, §5, §6, §7, §8, §9

[3] = tested on: MOLT-4 (human acute lymphoblastic leukemia cells); assay: MTT cancer cell growth inhibition; type: cell-based; details: 72 h
Description: as §1, §2, §3, §4, §5, §6, §7, §8, §9

[4] = tested on: Hela (human cervical cancer cells); assay: MTT cancer cell growth inhibition; type: cell-based; details: 72 h
Description: as §1, §2, §3, §4, §5, §6, §7, §8, §9

PANC-1 = assay: MTT cancer cell growth inhibition; type: cell-based; details: Homo sapiens, 72 h
Description: as §1, §2, §3, §4, §5, §6, §7, §8, §9

[5] = tested on: A549 (human lung cancer cells); assay: MTT cancer cell growth inhibition; type: cell-based; details: 72 h
Description: as §1, §2, §3, §4, §5, §6, §7, §8, §9

[6] = tested on: DU145 (human prostate cancer cells); assay: MTT cancer cell growth inhibition; type: cell-based; details: DU-145, 72 h
Description: as §1, §2, §3, §4, §5, §6, §7, §8, §9

[7] = tested on: BGC-823 (human gastric cancer cells); assay: MTT cancer cell growth inhibition; type: cell-based; details: 72 h, read-out: GI50 BGC823
Description: as §1, §2, §3, §4, §5, §6, §7, §8, §9

[8] = tested on: MCF-7 (human breast cancer cells); assay: MTT cancer cell growth inhibition; type: cell-based; details: MCF7, 72 h
Description: as §1, §2, §3, §4, §5, §6, §7, §8, §9

HDAC1 = HDAC1 (Homo sapiens, UniProt Q13547); assay: Measurement of biochemical activities of HDAC (fluorescently-labeled acetylated lysine substrate); details: read-out: IC50 HDAC1
Method: (§10) 1. Measurement principles: the measurement of biochemical activities of compounds is determined according to the degree of the compounds inhibiting the deacylation of HDAC enzyme. After the fluorescently-labeled substrate containing acetylated lysine side chain reacts with the HDAC enzyme, the fluorogenic substrate is deacetylated. After the deacetylated fluorescently-labeled substrate is cracked by the enzyme, a fluorescent substance is released. The fluorescent substance generates emitting light of 460 nm under the excitation of light of 360 nm.
(§11) 2. Detailed steps: the substrate of HDAC is diluted to […] (the reaction concentration is […]) with a reaction buffer. HDAC enzyme is diluted to a proper concentration. The compounds to be detected in different concentrations are added. The mixture reacts for 30 min at 37. Then the developer with the same volume and twice concentration of the substrate is added into the mixture. The mixture is incubated for 15 min at room temperature. Finally, the reading is measured with a micro plate scanner. The excitation light is 360 nm, the emitting light is 460 nm, and the data is processed with Prime 4 software.

HDAC7 = target: T1, HDAC7 (Homo sapiens, UniProt Q8WUI4); assay: as above
T1 sequence (Q8WUI4 1-952): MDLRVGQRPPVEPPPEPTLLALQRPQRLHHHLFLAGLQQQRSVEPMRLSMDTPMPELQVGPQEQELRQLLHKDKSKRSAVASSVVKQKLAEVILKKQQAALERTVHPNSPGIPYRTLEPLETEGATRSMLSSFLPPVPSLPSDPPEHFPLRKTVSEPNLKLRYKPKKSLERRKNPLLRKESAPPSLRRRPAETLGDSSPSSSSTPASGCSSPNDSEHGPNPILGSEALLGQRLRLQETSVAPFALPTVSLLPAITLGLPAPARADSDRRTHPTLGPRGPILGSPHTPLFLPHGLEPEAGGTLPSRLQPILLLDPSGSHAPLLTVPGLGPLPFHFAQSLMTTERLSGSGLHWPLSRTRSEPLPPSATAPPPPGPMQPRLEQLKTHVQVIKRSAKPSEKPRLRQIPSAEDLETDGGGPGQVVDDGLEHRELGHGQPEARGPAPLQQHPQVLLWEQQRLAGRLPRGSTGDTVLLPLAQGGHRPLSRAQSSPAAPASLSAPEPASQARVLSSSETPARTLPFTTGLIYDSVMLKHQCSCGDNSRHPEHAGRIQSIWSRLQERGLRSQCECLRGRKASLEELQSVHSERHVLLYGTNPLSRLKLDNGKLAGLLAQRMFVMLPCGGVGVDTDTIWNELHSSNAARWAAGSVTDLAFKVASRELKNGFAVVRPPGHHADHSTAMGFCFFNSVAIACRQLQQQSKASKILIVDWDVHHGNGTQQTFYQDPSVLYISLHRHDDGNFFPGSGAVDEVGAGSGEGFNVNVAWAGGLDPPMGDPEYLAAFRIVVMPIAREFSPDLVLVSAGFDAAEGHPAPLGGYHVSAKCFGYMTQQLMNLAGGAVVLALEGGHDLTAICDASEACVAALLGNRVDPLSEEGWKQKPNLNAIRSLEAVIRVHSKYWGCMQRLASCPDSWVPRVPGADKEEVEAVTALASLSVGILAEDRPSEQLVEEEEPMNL
Method: as §10, §11

HDAC1, sequence (Q13547 whole entry, species assumed): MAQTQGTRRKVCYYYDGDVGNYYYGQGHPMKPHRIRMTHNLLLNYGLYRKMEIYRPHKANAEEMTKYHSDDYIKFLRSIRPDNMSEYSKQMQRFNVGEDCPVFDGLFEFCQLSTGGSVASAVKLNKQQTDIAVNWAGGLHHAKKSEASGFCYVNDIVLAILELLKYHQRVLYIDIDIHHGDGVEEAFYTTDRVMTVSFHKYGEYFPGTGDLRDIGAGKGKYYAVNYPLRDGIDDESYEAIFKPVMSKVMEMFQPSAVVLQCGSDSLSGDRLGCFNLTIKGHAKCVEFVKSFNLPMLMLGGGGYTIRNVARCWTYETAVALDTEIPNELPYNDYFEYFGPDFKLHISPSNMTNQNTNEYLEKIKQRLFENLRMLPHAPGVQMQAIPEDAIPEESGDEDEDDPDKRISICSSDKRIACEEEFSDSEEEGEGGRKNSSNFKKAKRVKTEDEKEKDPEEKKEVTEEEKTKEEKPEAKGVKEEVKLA

| SMILES | GI50 (Incap) [nM] | GI50 [1] [nM] | GI50 [2] [nM] | GI50 [3] [nM] | GI50 [4] [nM] | GI50 (PANC-1) [nM] | GI50 [5] [nM] | GI50 [6] [nM] | GI50 [7] [nM] | GI50 [8] [nM] | pIC50 (HDAC1) | IC50 HDAC7 (HDAC7) |
| --- | --- | --- | --- | --- | --- | --- | --- | --- | --- | --- | --- | --- |
| C/C=C1\NC(=O)C2N=C(CNC(=O)C[C@@H](/C=C/CCSC(=O)CCCCCCC)OC(=O)[C@H](C(C)C)NC1=O)S[C@@H]2C (stereo partly drawn) [Compound 2-3] | 500 | 1230 | 40500 | 23100 | 26500 | 2650 | 2600 | 560 | 1560 | 21400 | > 5.00 | no activity |
| C/C=C1\NC(=O)c2csc(n2)CNC(=O)C[C@@H](/C=C/CCS)OC(=O)[C@H](C(C)C)NC1=O [Compound 6-1] | 42 | 5 | 50 | 650 | 600 | 230 | 100 | 34 | 360 | 59 | > 7.00 | no activity |
| C/C=C1\NC(=O)c2csc(n2)CNC(=O)C[C@@H](/C=C/CCSC(=O)CCCCCCC)OC(=O)CNC1=O [Compound 1-1] | 50 | 7 | 50 | 9 | 400 | 300 | 90 | 8 | 100 | 90 | > 7.00 | no activity |
| C/C=C1\NC(=O)c2ccnc(c2)CNC(=O)C[C@@H](/C=C/CCSC(=O)CCCCCCC)OC(=O)[C@H](C(C)C)NC1=O [Compound 2-7] | 650 | 9 | 80 | 2100 | 100 | 800 | 90 | 6 | 100 | 90 | > 5.00 | no activity |
| C/C=C1\NC(=O)c2csc(n2)[C@H](Cc2ccc(O)cc2)NC(=O)C[C@@H](/C=C/CCSC(=O)CCCCCCC)OC(=O)[C@H](C(C)C)NC1=O [Compound 4-4] | 4260 | 10200 | 650 | 50 | 1000 | 3010 | 10 | 2100 | 1020 | 6 | > 5.00 | no activity |
| C/C=C1\NC(=O)c2csc(n2)CNC(=O)C[C@@H](/C=C/CCSC(=O)CCCCCCC)OC(=O)[C@H](CC(C)C)NC1=O [Compound 1-11] | 30 | 9 | 80 | 10 | 100 | 800 | 5090 | 6 | 160 | 90 | > 7.00 | no activity |
| C/C=C1\NC(=O)C2=NC(=NC2)CNC(=O)C[C@@H](/C=C/CCSC(=O)CCCCCCC)OC(=O)[C@H](C(C)C)NC1=O [Compound 2-5] | 560 | 21000 | 1020 | 1030 | 12000 | 26400 | 2130 | 5460 | 20600 | 26000 | > 5.00 | no activity |
| CCCCCCCC(=O)SCC/C=C/[C@@H]1CC(=O)NCc2nc(cs2)C(=O)NCC(=O)N[C@@H](C(C)C)C(=O)O1 [Compound 3-3] | 450 | 140 | 60 | 2120 | 450 | 4130 | 1090 | 50 | 5940 | 1200 | > 5.00 | no activity |
| CCCCCCCC(=O)SCC/C=C/[C@@H]1CC(=O)NCc2nc(cs2)C(=O)N[C@H](CC)C(=O)N[C@@H](C(C)C)C(=O)O1 [Compound 3-2] | 1420 | 5260 | 1350 | 1060 | 600 | 1230 | 360 | 1060 | 1020 | 100 | > 5.00 | no activity |
